Measured values from patent publication US11638763B2, “Nanoallergens and uses thereof” (University of Notre Dame du Lac, priority 2015, dated 2023).
“Also recorded” adds a separate entry of the source. Square brackets hold non-standard residues; d marks the D form. Ends that are not written are not given here. Hyp = O=C(O)[C@@H]1C[C@@H](O)CN1

Key:
[1] = system: RBL-2H3 cells; test: Degranulation assay, RBL-2H3 cells primed with monoclonal IgE; type: cell-based, rat; settings: valency of 18, FIG. 19
Method: Cell Culture. RBL-2H3 cells were cultured in Minimum Essential Media (Gibco) with 10% fetal bovine serum (Gemini BioProducts) as previously described.^25
Degranulation Assays. RBL degranulation assays were performed as previously described, expect using nanoallergens as the allergen.^23 Additionally, RBL cells were incubated with 1 μg/mL of total IgE overnight prior to nanoallergen incubation using 75% IgE^cyclinA as an orthogonal IgE (i.e. an IgE specific to a molecule, cyclinA, which is not used in this study) to simulate physiological conditions for all degranulation assays.^21

[2] = target: IgE^dansyl; test: Fluorescence quenching titration of dansyl conjugates; type: binding; settings: monovalent affinity of hapten-amino acid conjugate
Method: Fluorescence Quenching Assay. The binding constants for dansyl conjugates were determined as previously described.^27 Briefly, Dansyl conjugates were titrated into wells containing 15 nM IgE^dansyl and then the flourscence read at various concentration points (Ex=280 nm, Em=335).

[3] = target: IgE^dansyl; test: Fluorescence quenching binding of HBI molecules to IgE^dansyl
Method: Fluorescence Quenching. In order to determine binding of HBI molecules to respective antibodies, we observed the quenching of tryptophan resides using a method previously described. Briefly, either IgE^dansyl or IgG^Penicillin was diluted into a non-binding 96-well dish at 40 nM in PBS. Then, HBI molecules which contained either a dansyl or DNP group were titrated into well and fluorescence (Ex. 280 nm, Em. 335) was observed using a SpectraMax M2 spectrophotometer. PBS and free tryptamine diluted to similar initial fluorescence values were used as controls to account for HBI fluorescence and non-specific quenching respectively.

[4] = system: RBL-SX38 cells; test: Degranulation assay, RBL-SX38 cells primed with peanut allergy patient sera; type: cell-based, rat; settings: for degranulation response: 2% epitope-lipid nanoallergens, single patient serum (FIG. 4); for Immuno-reactivity: epitope-lipid loaded in nanoallergens, patient sera; for effect on Ara h 2 triggered degranulation: 100 μM free epitope 2, FIG. 13
Method: Cell Culture. RBL-SX38 cells were a generous gift from Dr. Jean-Pierre Kinet from Harvard University. RBL-SX38 cells were cultured in Minimum Essential Media (Gibco) with 10% fetal bovine serum (Gemini BioProducts, Sacramento Calif.) and 1.2 mg/mL of G418 salt (Sigma) as previously described.
Degranulation Assays. Degranulation assays were performed as previously described using nanoallergens as the allergen. RBL cells were plated into 96-well dishes for 24 hrs and then incubated with 10% of human sera in cell culture media for an additional 24 hrs prior to the degranulation assay.
Using the mast-like rat basophil leukemia SX38 (RBL) cell line that has been transfected to express the human FcεRI on their surface, applicants can use peanut reactive patient sera in applicants' cellular degranulation assays (FIG. 8). The RBL cells become sensitized when IgEs from the patient sera (including those reactive to peanuts) tightly bind to the high affinity FcεRI. After sensitization, applicants added varying concentrations of either Ara h 2 or nanoallergens with 2% of epitope 2 lipid loaded into the liposome.

[5] = system: Bruton's tyrosine kinase (BTK); test: Western blot of BTK phosphorylation in stimulated RBL-SX38 cells; type: cell-based, rat; settings: FIG. 3
Method: Western Blot. Stimulated RBL cells were analyzed for intracellular activity with a Western blotting technique previously described. RBL-SX38 cells were plated at approximately 0.5×10^6 cells per mL into a 3 mL dish for 24 hours. Cells were then incubated in 10% patient serum in cell culture media for 24 hours. Cells were then washed with Tyrodes buffer and incubated with Tyrodes from 30 minutes at 37° C. Ara h 2 or nanoallergens were then added at varying concentrations and incubated at 37° C. for 3 minutes. Cells were washed with ice cold PBS, then incubated in RIPA with phosphatase inhibitor lysis buffer, scrapped and sonicated for a minute intervals over the course of 30 minutes on ice. Lysates were then spun down at 15000 RPM for 10 minutes and their protein concentration determined by Bradford Assay. Laemmli buffer and PBS were added to all lysates so that their protein concentration was 0.5 mg/mL or would be 0.5 mg/mL prior to immunoprecipitation. Samples were boiled for 5 minutes; centrifuged and 20 uL of each was added to a 10% SDS-PAGE gel. Samples ran on the gel for 1 hr, were transferred to nitrocellulose paper for 1.5 hrs, and blocked with 5% BSA in TBS-T for 1 hr. […] The membranes were washed, and incubated in with Clarity™ Western ECL Blotting Substrate (Bio-Rad) for 5 minutes. Bands were exposed onto Kodak Chemiluminescence Film for times ranging from 1-30 minutes.

[6] = system: patient IgEs; test: ELISA binding assay with patient sera; set-up: species or system human; settings: for EC50: patient serum 0, plate coated with anti-IgE IgG
Method: ELISA Assay. A high binding 96-well plate was incubated with anti-Human IgE in Carbonate-Bicarbonate buffer (Sigma) at a concentration of 3 nM for 16 hours at 4° C. Plate was washed with washing buffer (PBS with 0.5% tween 20) and then blocked with blocking buffer (5% BSA in PBS with 0.1% tween 20) for 1 hr at room temperature. Plate was washed with automatic plate washer (AquaMax 2000), then varying concentrations of either Ara h 2-Biotin (Indoors Biotechnologies) or FITC-peptide 2 conjugate in blocking buffer for 1 hour. Plate was washed again and then either streptavidin-HRP (1:5000 dilution) or anti-FITC HRP IgG (1:5000 dilution) was added in blocking buffer. After washing, Amplex Red substrate was added (Invitrogen) and plate fluorescence read at 5 minute intervals according to manufacturers instructions.

[7] = various sera from highly allergic individuals; cited from earlier work
[8] = all four patient sera, 2% loaded, FIG. 6

**Q.** For “DNP-BSA: DNP groups covalently bonded to bovine serum albumin, valency of 18, used as a control”, which EC50 [1] is on record?
**A.** 26 ± 9 nM

**Q.** Which Kd [2] does the source give for Dansyl here?
**A.** 147 nM

**Q.** And the Kd [3]?
**A.** 29.9 ± 10 nM

**Q.** Which degranulation response [4] does the source give for “Epitope-Lipid 1: Ara h 2 epitope NLRPCEQHLMQKIQRD (38-53) lipid conjugate, tested loaded at 2% in nanoallergens (also: lipid conjugate, site not given here)” here?
**A.** little or no degranulation response

**Q.** And the “degranulation response in patient sera” value ([4]; Serum 1, 2 and 3, in contrast to Serum 0)?
**A.** moderate responses

**Q.** And the Immuno-reactivity [4]?
**A.** None

**Q.** What does the source list for “Epitope-Lipid 2: Ara h 2 epitope ERDPYSP^OHSQDPYSP^OHS (79-91) lipid conjugate, tested loaded at 2% in nanoallergens (ERDPYS[Hyp]SQDPYS[Hyp]S; also: lipid conjugate, site not given here)”?
**A.** fold lower concentration than Ara h 2 to stimulate degranulation ([4]; 2% epitope 2 lipid, FIG. 2C): approximately 10 fold; degranulation response [4]: simulate degranulation; effect of proline hydroxylations on degranulation response ([4]; 2% loaded nanoallergens, with and without hydroxylations, FIG. 10): increase in response when proline hydroxylations are present; Immuno-reactivity [4]: High; fold lower concentration than the other immune-reactive epitope nanoallergens to stimulate degranulation ([4]; single patient serum, FIG. 4): approximately 100 fold; BTK phosphorylation [5]: increase in phosphorylation BTK

**Q.** For “Epitope-Lipid 3: Ara h 2 epitope SDRLQGRQQ (114-123) lipid conjugate, tested loaded at 2% in nanoallergens (also: lipid conjugate, site not given here)”, which degranulation response ([4]; listed as epitope 3) is on record?
**A.** simulate degranulation; also recorded: could trigger degranulation

**Q.** What about the Immuno-reactivity [4] of the same molecule?
**A.** Mild

**Q.** What about the “binding through ELISA” value [6] of the same molecule?
**A.** did not demonstrate any binding

**Q.** Which results are given for “Epitope-Lipid 4: Ara h 2 epitope RRCQSQLER (28-35) lipid conjugate, tested loaded at 2% in nanoallergens (also: lipid conjugate, site not given here)”?
**A.** degranulation response ([4]; listed as epitope 4): simulate degranulation; also recorded: little or no degranulation response; degranulation response in patient sera [4, 8]: no response; Immuno-reactivity [4]: None

**Q.** With “Epitope-Lipid 5: Ara h 2 epitope HASARQQWEL (15-24) lipid conjugate, tested loaded at 2% in nanoallergens (also: lipid conjugate, site not given here)” as the molecule, how does the degranulation response ([4]; listed as epitope 5) read?
**A.** simulate degranulation; also recorded: could trigger degranulation

**Q.** What about the “degranulation response in patient sera” value [4, 8] of the same molecule?
**A.** moderate responses

**Q.** And the Immuno-reactivity [4]?
**A.** Mild

**Q.** And the “binding through ELISA” value [6]?
**A.** did not demonstrate any binding

**Q.** Which results are given for “Epitope-Lipid 6: Ara h 2 epitope RQQEQQFKRELRNLPQQ (120-136) lipid conjugate, tested loaded at 2% in nanoallergens (also: lipid conjugate, site not given here)”?
**A.** degranulation response [4]: simulate degranulation; degranulation response in patient sera [4, 8]: moderate responses; Immuno-reactivity [4]: Mild

**Q.** Which results are given for “Epitope-Lipid 7: Ara h 2 epitope PQRCDLE (142-148) lipid conjugate, tested loaded at 2% in nanoallergens (also: lipid conjugate, site not given here)”?
**A.** degranulation response [4]: simulate degranulation; degranulation response in patient sera [4, 8]: low responses; Immuno-reactivity [4]: Low

**Q.** For “Epitope-Lipid 8: Ara h 2 epitope CDLEVESGGRDRY (145-157) lipid conjugate, tested loaded at 2% in nanoallergens (also: lipid conjugate, site not given here)”, which degranulation response [4] is on record?
**A.** little or no degranulation response

**Q.** And the “degranulation response in patient sera” value ([4]; all four patient sera, 2% loaded, FIG. 6, listed as epitope 8)?
**A.** no response; also recorded: did not demonstrate any degranulation

**Q.** What about the Immuno-reactivity [4] of the same molecule?
**A.** None

**Q.** For “Pep2: FITC-tagged epitope 2 peptide used in ELISA (ERDPYS[Hyp]SQDPYS[Hyp]S; also: FITC-tagged, site not given here)”, which EC50 [6] is on record?
**A.** 465 ± 200 nM

**Q.** Which “effect on Ara h 2 triggered degranulation” value [4] does the source give for “free epitope 2 peptide: free Ara h 2 epitope 2 peptide, used at 100 μM (ERDPYS[Hyp]SQDPYS[Hyp]S)” here?
**A.** only a very small decrease in degranulation response

**Q.** What about the “effect on Ara h 2 triggered degranulation” value ([4]; listed as free epitope peptide 2) of the same molecule?
**A.** did not prevent Ara h 2 protein from triggering degranulation

**Q.** And the “effect on nanoallergen degranulation response” value ([4]; 100 μM free peptide 2, FIG. 9)?
**A.** can be prevented

B1: Ara h2: major peanut allergen, 17.5 kDa 2 S albumin seed storage protein (protein)
chain: RQQWELQGDRRCQSQLERANLRPCEQHLMQKIQRDEDSYGRDPYSPSQDPYSPSQDPDRRDPYSPSPYDRRGAGSSQHQERCCNELNEFENNQRCMCEALQQIMENQSDRLQGRQQEQQFKRELRNLPQQCGLRAPQRCDLEVESGGRDRY
**Q.** For B1, which EC50 [6] is on record?
**A.** 40 ± 27 nM

**Q.** What about the “EC50 values in cellular studies” value [7] of the same molecule?
**A.** low picomolar range
